This note sets out measurements from patent publication US11312781B2, “Antigen binding molecules that bind LIGHT” (Capella Bioscience Ltd., priority 2018, dated 2022).

Assay [1] deals with CMV stimulated human PBMC. Description: Human PBMC antigen specific (CMV) recall response in vitro, cytokines by Luminex. The format is cell-based. The note with it: CMV stimulation, 5 day incubation; for IFN gamma production from PBMC: FIG. 11B. As to the method: In order to test the efficacy of anti-LIGHT mAbs on stimulated PBMC a recall antigen CMV (cytomegalovirus) lysate was utilised to stimulate PBMC from human CMV-positive donors (ImmunXperts, Belgium). 200 000 cells per well in RPMI (Thermofisher cat. no. 11875) plus 10% FBS (GIBCO) was added to CMV lysate (Serion immunologics cat. no. BA109VS, final concentration 10 ug/ml) with test mAbs in a volume of 200 ul. After a 5 day incubation at 37C and 5% CO2 the media was recovered by centrifugation and assayed for cytokines by Luminex immunoassay (ThermoFisher).

For assay [2], the system named is DSS-induced colitis in hu-NOG mice. Briefly: DSS-induced acute colitis in humanized (hu-NOG) mice. The format is in vivo, mouse (hu-NOG). The note with it: i.p. days 0, 3, 6, 9, versus IgG control, FIG. 9. The procedure: The experiments were carried out with the NOD/Shi-scid/IL-2Rγnull immunodeficient mouse strain (NOG) engrafted with CD34+ hematopoietic stem cells isolated from human cord blood as described in Manfroi B et al. (Cancer Res. 2017; 77:1097-1107). The reconstitution of the human immune system in the mice occurred for at least 14 weeks, and hu-mice were used that had at least 25% human CD45+/total CD45 cells. Female hu-NOG mice were randomised into 3 groups (n=10) taking into account the humanization rate and the CD34+ cell donors. All animal studies described in this study have been reviewed and approved by the local ethic committee (CELEAG). Mice were allowed to acclimate to the experimental environment for 5 days prior to the beginning of the experiment. The DSS was administrated for 7 days, from day 2 to 8. The DSS (3%) was added to the drinking water (ad libitum) and freshly renewed every two days.
All treatments started before the DSS-induced colitis. 3B04 variant 16 (5 mg/kg) and the isotype control and anti-TNF (Humira) antibodies (10 mg/kg) were administrated i.p. on days 0, 3, 6, 9. The experiment was terminated on day 12. The following parameters were recorded daily for 12 days: body weight in grams (g); diarrhea and stool consistency; bleeding and mortality. The global clinical score was calculated as follows: […]

Regarding `C[C@@H]1CCN(C(=O)CC#N)C[C@@H]1N(C)c1ncnc2[nH]ccc12` [Tofacitinib, reference compound], the “IL-17 production from PBMC” value in assay [1] (FIG. 11A) was “inhibited”. Besides, in assay [1], the “IFN gamma production from PBMC” value is reported as “inhibited”.

For adalimumab [humira, reference compound], in assay [2], the Global clinical score result is listed as “significant drop in the global clinical score from days 9 to 11”.

Regarding “Opdivo: anti-PD-1 antibody, positive control in the PBMC assay (10 ug/ml) [reference compound]”, in assay [1], the “IFN gamma production from PBMC” value was “increased”.
